{"source": "BindingDB's records for doi:10.1016/j.bmcl.2006.12.076", "about": "(Glaxosmithkline, 2007)", "key": {"[1]": {"assay": "Antagonist activity at human recombinant CCR8 expressed in Th2 cells assessed as I309 mediated migration by chemotaxis assay"}, "[2]": {"assay": "Antagonist activity at human recombinant CCR8 expressed in HUT78 cells assessed as I309-mediated migration by chemotaxis assay"}}}
{"compound": "COc1ccc2nccc([C@@H]3CN(C4CCN(Cc5cc6ccccc6[nH]5)CC4)C(=O)O3)c2c1", "note": "[SB-649701]", "values": [{"measurement": "IC50", "setting": "[1]", "result": 100, "unit": "nM"}, {"measurement": "IC50", "setting": "[2]", "result": 501, "unit": "nM"}]}
